According to patent US7960389B2, “4(phenyl-piperazinyl-methyl) benzamide derivatives and their use for the treatment of pain or gastrointestinal disorders” (priority 2002, dated 2011):
Read-outs that look alike come from different tables or passages of the source.

Experiments:
human δ receptors [1] = molecular target: T1, human δ receptors (Homo sapiens, UniProt P41143); experiment: Binding assay, membranes of human 293S cells expressing cloned human δ receptors
T1 construct: expressed in transfected cells; host or cells: human 293S (HEK-293S) cells

human δ receptors [2] = molecular target: T1, human δ receptors; experiment: Human δ receptor functional assay (GTP[γ]35S binding, HEK-293S cell membranes); format: biochemical; conditions: for Emax: relative to standard δ agonist SNC80, receptors expressed at higher levels, read-out: Human δ % EMax (high)
Method: (§1) • A. Human 293S cells expressing cloned human κ, δ and μ receptors and neomycin resistance are grown in suspension at 37° C. and 5% CO2 in shaker flasks containing calcium-free DMEM10% FBS, 5% BCS, 0.1% Pluronic F-68, and 600 μg/ml geneticin. • B. Rat brains are weighed and rinsed in ice-cold PBS (containing 2.5 mM EDTA, pH 7.4). The brains are homogenized with a polytron for 30 sec (rat) in ice-cold lysis buffer (50 mM Tris, pH 7.0, 2.5 mM EDTA, with phenylmethylsulfonyl fluoride added just prior use to […] from a 0.5M stock in DMSO:ethanol). Membrane Preparation
Cells are pelleted and resuspended in lysis buffer (50 mM Tris, pH 7.0, 2.5 mM EDTA, with PMSF added just prior to use to 0.1 mM from a 0.1 M stock in ethanol), incubated on ice for 15 min, then homogenized with a polytron for 30 sec. The suspension is spun at 1000 g (max) for 10 min at 4° C. The supernatant is saved on ice and the pellets resuspended and spun as before. The supernatants from both spins are combined and spun at 46,000 g(max) for 30 min. The pellets are resuspended in cold Tris buffer (50 mM Tris/Cl, pH 7.0) and spun again. The final pellets are resuspended in membrane buffer (50 mM Tris, 0.32 M sucrose, pH 7.0). Aliquots (1 ml) in polypropylene tubes are frozen in dry ice/ethanol and stored at −70° C. until use. The protein concentrations are determined by a modified Lowry assay with sodium dodecyl sulfate.
(§2) The agonist activity of the compounds is measured by determining the degree to which the compounds receptor complex activates the binding of GTP to G-proteins to which the receptors are coupled. In the GTP binding assay, GTP[γ]^35S is combined with test compounds and membranes from HEK-293S cells expressing the cloned human opioid receptors or from homogenised rat and mouse brain. Agonists stimulate GTP[γ]^35S binding in these membranes. The EC50 and Emax values of compounds are determined from dose-response curves. Right shifts of the dose response curve by the delta antagonist naltrindole are performed to verify that agonist activity is mediated through delta receptors. For human δ receptor functional assays, EC50 (low) is measured when the human δ receptors used in the assay were expressed at lower levels in comparison with those used in determining EC50 (high). The Emax values were determined in relation to the standard δ agonist SNC80, i.e., higher than 100% is a compound that have better efficacy than SNC80.

[3] = molecular target: T2, δ receptors in rat brain membranes (Rattus norvegicus, UniProt P33533); experiment: Rat brain functional assay (GTPγ35S binding, rat brain membranes); format: biochemical; conditions: Table 1, relative to SNC80
T2 construct: Rat brain membranes are thawed at 37° C; from tissue; host or cells: rat brain homogenate membranes
Method: as §1, §2
Rat brain membranes are thawed at 37° C., passed 3 times through a 25-gauge blunt-end needle and diluted in the GTPγS binding (50 mM Hepes, 20 mM NaOH, 100 mM NaCl, 1 mM EDTA, 5 mM MgCl2, pH 7.4, Add fresh: 1 mM DTT, 0.1% BSA). 120 μM GDP final is added membranes dilutions. […] The basal and maximal stimulated binding are determined in absence and presence of 3 μM SNC-80

human κ receptors = molecular target: T3, human κ receptors (Homo sapiens, UniProt P41145); experiment: Binding assay, membranes of human 293S cells expressing cloned human κ receptors
T3 construct: expressed in transfected cells; host or cells: human 293S cells
T3 sequence (P41145 whole entry): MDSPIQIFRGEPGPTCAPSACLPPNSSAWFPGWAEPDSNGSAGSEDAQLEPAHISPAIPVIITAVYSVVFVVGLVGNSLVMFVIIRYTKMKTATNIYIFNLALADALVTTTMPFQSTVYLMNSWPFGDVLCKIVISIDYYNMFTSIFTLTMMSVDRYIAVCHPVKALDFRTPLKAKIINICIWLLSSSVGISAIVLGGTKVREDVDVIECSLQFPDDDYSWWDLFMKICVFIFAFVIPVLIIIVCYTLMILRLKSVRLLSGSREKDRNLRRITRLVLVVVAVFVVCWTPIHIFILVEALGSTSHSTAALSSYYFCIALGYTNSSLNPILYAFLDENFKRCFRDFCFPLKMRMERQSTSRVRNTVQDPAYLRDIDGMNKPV

T2 sequence (P33533 whole entry): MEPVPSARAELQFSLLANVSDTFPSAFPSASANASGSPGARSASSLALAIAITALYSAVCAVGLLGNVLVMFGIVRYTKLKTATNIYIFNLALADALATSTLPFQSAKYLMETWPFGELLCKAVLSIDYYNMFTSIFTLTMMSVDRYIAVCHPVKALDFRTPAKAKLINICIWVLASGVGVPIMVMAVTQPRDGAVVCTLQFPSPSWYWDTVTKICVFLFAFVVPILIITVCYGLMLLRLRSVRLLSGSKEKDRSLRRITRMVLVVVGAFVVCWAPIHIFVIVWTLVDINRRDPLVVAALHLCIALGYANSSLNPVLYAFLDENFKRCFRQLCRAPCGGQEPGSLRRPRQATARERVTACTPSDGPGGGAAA
T1 sequence (P41143 whole entry): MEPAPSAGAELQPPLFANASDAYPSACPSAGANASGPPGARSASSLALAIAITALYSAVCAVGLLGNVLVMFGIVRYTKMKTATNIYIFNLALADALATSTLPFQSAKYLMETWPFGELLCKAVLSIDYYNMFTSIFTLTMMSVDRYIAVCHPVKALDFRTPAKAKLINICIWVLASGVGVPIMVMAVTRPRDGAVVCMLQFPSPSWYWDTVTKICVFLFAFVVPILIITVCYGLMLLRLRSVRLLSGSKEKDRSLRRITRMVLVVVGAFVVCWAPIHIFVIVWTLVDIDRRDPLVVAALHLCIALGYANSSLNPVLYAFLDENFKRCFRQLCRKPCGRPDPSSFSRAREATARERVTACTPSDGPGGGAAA

CCN(CC)C(=O)c1ccc([C@H](c2cccc(NC(=O)OC)c2)N2CCN(Cc3ccco3)CC2)cc1 [Compound 8, R-Methyl 3-{{4-[(diethylamino)carbonyl]phenyl}[4-(2-furylmethyl)piperazin-1-yl]methyl}phenylcarbamate]
IC50 (human δ receptors [1]): 0.25 to 0.74 nM | EC50 (human δ receptors [2]): 0.55 to 1.93 nM | Emax (human δ receptors [2]; Table 1): 89 to 102% | Emax [3]: 135 to 170%

CCN(CC)C(=O)c1ccc([C@H](c2cccc(NC(=O)OC)c2)N2CCN(Cc3cccs3)CC2)cc1 [Compound 4, R-Methyl 3-{{4-[(diethylamino)carbonyl]phenyl}[4-(thien-2-ylmethyl)piperazin-1-yl]methyl}phenylcarbamate]
IC50 (human δ receptors [1]): 0.25 to 0.74 nM | EC50 (human δ receptors [2]): 0.55 to 1.93 nM | Emax (human δ receptors [2]; Table 1): 89 to 102% | Emax [3]: 135 to 170%

CCN(CC)C(=O)c1ccc([C@H](c2cccc(NC(=O)OC)c2)N2CCN(Cc3ccsc3)CC2)cc1 [Compound 6, R-Methyl 3-{{4-[(diethylamino)carbonyl]phenyl}[4-(thien-3-ylmethyl)piperazin-1-yl]methyl}phenylcarbamate]
IC50 (human δ receptors [1]): 0.25 to 0.74 nM | EC50 (human δ receptors [2]): 0.55 to 1.93 nM | Emax (human δ receptors [2]; Table 1): 89 to 102% | Emax [3]: 135 to 170%

CCN(CC)C(=O)c1ccc([C@H](c2cccc(NC(=O)OC)c2)N2CCN(Cc3ccoc3)CC2)cc1 [Compound 10, R-Methyl 3-{{4-[(diethylamino)carbonyl]phenyl}[4-(3-furylmethyl)piperazin-1-yl]methyl}phenylcarbamate]
IC50 (human δ receptors [1]): 0.25 to 0.74 nM | EC50 (human δ receptors [2]): 0.55 to 1.93 nM | Emax (human δ receptors [2]; Table 1): 89 to 102% | Emax [3]: 135 to 170%

CCN(CC)C(=O)c1ccc([C@H](c2cccc(NC(=O)OC)c2)N2CCN(Cc3ccccc3)CC2)cc1 [Compound 1, R-Methyl 3-[(4-[(diethylamino)carbonyl]phenyl)(4-benzyl-piperazin-1-yl)methyl]phenylcarbamate]
IC50 (human δ receptors [1]): 0.25 to 0.74 nM | EC50 (human δ receptors [2]): 0.55 to 1.93 nM | Emax (human δ receptors [2]; Table 1): 89 to 102% | Emax [3]: 135 to 170%

CCN(CC)C(=O)c1ccc([C@@H](c2cccc(NC(=O)OC)c2)N2CCN(Cc3ccco3)CC2)cc1 [Compound 7, S-Methyl 3-{{4-[(diethylamino)carbonyl]phenyl}[4-(2-furylmethyl)piperazin-1-yl]methyl}phenylcarbamate]
IC50 (human δ receptors [1]): 0.25 to 0.74 nM | EC50 (human δ receptors [2]): 0.55 to 1.93 nM | Emax (human δ receptors [2]; Table 1): 89 to 102% | Emax [3]: 135 to 170%

CCN(CC)C(=O)c1ccc([C@@H](c2cccc(NC(=O)OC)c2)N2CCN(Cc3ccccc3)CC2)cc1 [Compound 2, S-Methyl 3-[(4-[(diethylamino)carbonyl]phenyl)(4-benzyl-piperazin-1-yl)methyl]phenylcarbamate]
IC50 (human δ receptors [1]): 0.25 to 0.74 nM | EC50 (human δ receptors [2]): 0.55 to 1.93 nM | Emax (human δ receptors [2]; Table 1): 89 to 102% | Emax [3]: 135 to 170%

CCN(CC)C(=O)c1ccc([C@@H](c2cccc(NC(=O)OC)c2)N2CCN(Cc3cccs3)CC2)cc1 [Compound 3, S-Methyl 3-{{4-[(diethylamino)carbonyl]phenyl}[4-(thien-2-ylmethyl)piperazin-1-yl]methyl}phenylcarbamate]
IC50 (human δ receptors [1]): 0.25 to 0.74 nM | EC50 (human δ receptors [2]): 0.55 to 1.93 nM | Emax (human δ receptors [2]; Table 1): 89 to 102% | Emax [3]: 135 to 170%

CCN(CC)C(=O)c1ccc([C@H](c2cccc(NC(=O)OC)c2)N2CCN(Cc3ncc[nH]3)CC2)cc1 [Compound 11, R-Methyl 3-{{4-[(diethylamino)carbonyl]phenyl}[4-(1H-imidazol-2-ylmethyl)piperazin-1-yl]methyl}phenylcarbamate]
IC50 (human δ receptors [1]; Table 1, displacement of radioactive δ receptor ligand, read-out: Human δ IC50): 0.25 to 0.74 nM | IC50 (human κ receptors): 247 to 1640 nM | EC50 (human δ receptors [2]; Table 1, human δ receptors expressed at higher levels, read-out: Human δ EC50 (high)): 0.55 to 1.93 nM | Emax (human δ receptors [2]; Table 1): 89 to 102% | Emax [3]: 135 to 170%

CCN(CC)C(=O)c1ccc([C@@H](c2cccc(NC(=O)OC)c2)N2CCN(Cc3ccoc3)CC2)cc1 [Compound 9]
IC50 (human δ receptors [1]): 0.25 to 0.74 nM | EC50 (human δ receptors [2]): 0.55 to 1.93 nM | Emax (human δ receptors [2]; Table 1): 89 to 102% | Emax [3]: 135 to 170%

CCN(CC)C(=O)c1ccc([C@@H](c2cccc(NC(=O)OC)c2)N2CCN(Cc3ccsc3)CC2)cc1 [Compound 5, S-Methyl 3-{{4-[(diethylamino)carbonyl]phenyl}[4-(thien-3-ylmethyl)piperazin-1-yl]methyl}phenylcarbamate]
IC50 (human δ receptors [1]): 0.25 to 0.74 nM | EC50 (human δ receptors [2]): 0.55 to 1.93 nM | Emax (human δ receptors [2]; Table 1): 89 to 102% | Emax [3]: 135 to 170%
